Data on 18 compounds can be found in patent publication US20120157453A1, “RAF INHIBITOR COMPOUNDS AND METHODS OF USE THEREOF” (GENENTECH, INC., priority 2009, published 2012).

Read-outs that look alike come from different tables or passages of the source.

The target in one experiment is T1, V600E full-length B-Raf (Homo sapiens, UniProt P15056, V600E).
T1 construct: 1 μM FSBA-MEK and 20 nM V600E full-length B-Raf; made in house; host or cells: Sf9 insect cells (baculovirus)
The experiment can be described thus: B-Raf IC50 assay (incorporation of 33P phosphate into FSBA-modified MEK). Type of experiment: biochemical. An excerpt:
Determining the activity of Raf in the sample is possible by a number of direct and indirect detection methods (US 2004/0082014). Activity of human recombinant B-Raf protein may be assessed in vitro by assay of the incorporation of radio labeled phosphate to recombinant MAP kinase (MEK), a known physiologic substrate of B-Raf, according to US 2004/0127496 and WO 03/022840. The activity/inhibition of V600E full-length B-Raf was estimated by measuring the incorporation of radio labeled phosphate from [γ-^33P]ATP into FSBA-modified wild-type MEK (see Example A).
Activity of human recombinant B-Raf protein may be assessed in vitro by assay of the incorporation of radio labeled phosphate to recombinant MAP kinase (MEK), a known physiologic substrate of B-Raf, according to US 2004/0127496 and WO 03/022840. Catalytically active human recombinant B-Raf protein is obtained by purification from sf9 insect cells infected with a human B-Raf recombinant baculovirus expression vector.
The activity/inhibition of V600E full-length B-Raf was estimated by measuring the incorporation of radio labeled phosphate from [γ-^33P]ATP into FSBA-modified wild-type MEK. The 30-μL assay mixtures contained 25 mM Na Pipes, pH 7.2, 100 mM KCl, 10 mM MgCl2, 5 mM β-glycerophosphate, 100 μM Na Vanadate, 4 μM ATP, 500 nCi [γ-^33P]ATP, 1 μM FSBA-MEK and 20 nM V600E full-length B-Raf. Incubations were carried out at 22° C. in a Costar 3365 plate (Corning). Prior to the assay, the B-Raf and FSBA-MEK were preincubated together in assay buffer at 1.5× (20 μL of 30 nM and 1.5 μM, respectively) for 15 minutes, and the assay was initiated by the addition of 10 μL of 10 μM ATP. Following the 60-minute incubation, the assay mixtures were quenched by the addition of 100 μL of 25% TCA, the plate was mixed on a rotary shaker for 1 minute, and the product was captured on a Perkin-Elmer GF/B filter plate using a Tomtec Mach III Harvester. After sealing the bottom of the plate, 35 μL of Bio-Safe II (Research Products International) scintillation cocktail were added to each well and the plate was top-sealed and counted in a Topcount NXT (Packard).

Experiment [1] relates to basal ERK1/2 phosphorylation in Malme-3M cells. The experiment can be described thus: Cellular ERK 1/2 phosphorylation assay. Type of experiment: cell-based. Conditions: Homo sapiens, 1 h, pERK normalized to total ERK. As for the experimental part:
Inhibition of basal ERK1/2 phosphorylation was determined by the following in vitro […], which comprises incubating cells with a compound of Formula II for 1 hour and quantifying the fluorescent pERK signal on fixed cells and normalizing to total ERK signal.
Materials and Methods: Malme-3M cells were obtained from ATCC and grown in RPMI-1640 supplemented with 10% fetal bovine serum. Cells were plated in 96-well plates at 24,000 cells/well and allowed to attach for 16-20 hours at 37° C., 5% CO2. The media was removed, and DMSO-diluted compounds were added in RPMI-1640 at a final concentration of 1% DMSO. The cells were incubated with the compounds for 1 hour at 37° C., 5% CO2. The cells were washed with PBS and fixed in 3.7% formaldehyde in PBS for 15 minutes. This was followed by washing in PBS/0.05% Tween20 and permeabilizing in −20° C. 100% MeOH for 15 minutes. Cells were washed in PBS/0.05% Tween20 then blocked in Odyssey blocking buffer (LI-COR Biosciences) for 1 hour. Antibodies to phosphorylated ERK (1:400, Cell Signaling #9106, monoclonal) and total ERK (1:400, Santa Cruz Biotechnology #sc-94, polyclonal) were added to the cells and incubated 16-20 hours at 4° C. After washing with PBS/0.05% Tween20, the cells were incubated with fluorescently-labeled secondary antibodies (1:1000 goat anti-rabbit IgG-IRDye800, Rockland and 1:500 goat anti-mouse IgG-Alexa Fluor 680, Molecular Probes) for an additional hour. Cells were then washed and analyzed for fluorescence at both wavelengths using the Odyssey Infrared Imaging System (LI-COR Biosciences). Phosphorylated ERK signal was normalized to total ERK signal.

Where [2] appears, read: B-Raf V600E, bound less than 1 μM, read-out: IC50.
Where [3] appears, read: Example A assay, 4 μM ATP, 20 nM enzyme, 60-minute incubation, read-out: BRAF V600E IC50.

T1 sequence (P15056 whole entry V600E): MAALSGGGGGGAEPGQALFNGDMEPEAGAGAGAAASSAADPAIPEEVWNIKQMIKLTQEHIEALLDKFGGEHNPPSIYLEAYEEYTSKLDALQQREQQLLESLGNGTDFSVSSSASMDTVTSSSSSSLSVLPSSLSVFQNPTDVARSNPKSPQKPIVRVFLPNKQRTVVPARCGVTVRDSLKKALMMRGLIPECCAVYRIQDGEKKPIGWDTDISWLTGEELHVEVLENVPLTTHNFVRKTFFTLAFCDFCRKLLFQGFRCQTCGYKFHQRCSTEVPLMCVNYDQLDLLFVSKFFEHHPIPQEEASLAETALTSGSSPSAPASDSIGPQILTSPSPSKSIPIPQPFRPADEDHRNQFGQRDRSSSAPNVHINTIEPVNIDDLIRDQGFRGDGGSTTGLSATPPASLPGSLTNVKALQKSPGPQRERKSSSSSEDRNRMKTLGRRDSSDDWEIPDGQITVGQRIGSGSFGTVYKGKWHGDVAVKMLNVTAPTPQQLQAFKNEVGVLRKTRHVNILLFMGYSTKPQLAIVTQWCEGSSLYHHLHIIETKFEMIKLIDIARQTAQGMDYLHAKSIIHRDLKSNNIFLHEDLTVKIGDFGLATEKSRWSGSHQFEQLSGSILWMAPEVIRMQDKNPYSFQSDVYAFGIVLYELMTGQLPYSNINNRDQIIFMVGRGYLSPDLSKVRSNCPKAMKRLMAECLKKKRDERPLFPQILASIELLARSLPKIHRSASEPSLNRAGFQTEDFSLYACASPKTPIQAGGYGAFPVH

As a reminder, the IC50 is the point on the concentration scale where inhibition reaches its midpoint. With `CCCS(=O)(=O)Nc1ccc(F)c(NC(=O)Nc2ncnc3sc(C)c(C)c23)c1F` [Example 20, Propane-1-sulfonic acid {3-[3-(5,6-dimethyl-thieno[2,3-d]pyrimidin-4-yl)-ureido]-2,4-difluoro-phenyl}-amide], the IC50 at V600E full-length B-Raf (setting [2]) was less than 1000 nM; at V600E full-length B-Raf (setting [3]) it was 28.2 nM; in experiment [1] (bound less than 1 μM) it was less than 1000 nM.

Turning to `CCS(=O)(=O)Nc1ccc(Cl)c(NC(=O)Nc2ncnc3[nH]nc(OC)c23)c1F` [Example 4, Ethanesulfonic acid {4-chloro-2-fluoro-3-[3-(3-methoxy-1H-pyrazolo[3,4-d]pyrimidin-4-yl)-ureido]-phenyl}-amide], the half-maximal inhibitory concentration (IC50) on V600E full-length B-Raf (setting [2]) was less than 1000 nM; on V600E full-length B-Raf (setting [3]), 1.9 nM; in experiment [1] (bound less than 500 nM), less than 500 nM; in experiment [1] (bound less than 1 μM), less than 1000 nM.

Turning to `CCCS(=O)(=O)Nc1ccc(F)c(NC(=O)Nc2ncnc3[nH]ccc23)c1F` [Example 12, Propane-1-sulfonic acid {2,4-difluoro-3-[3-(7H-pyrrolo[2,3-d]pyrimidin-4-yl)-ureido]-phenyl}-amide], the IC50 on V600E full-length B-Raf (setting [2]) is less than 1000 nM; at V600E full-length B-Raf (setting [3]), 56.2 nM; in experiment [1] (bound less than 500 nM), less than 500 nM; in experiment [1] (bound less than 1 μM), less than 1000 nM.

Take `CCCS(=O)(=O)Nc1ccc(F)c(NC(=O)Nc2ncnc3[nH]cnc23)c1F` [Example 13, Propane-1-sulfonic acid {2,4-difluoro-3-[3-(9H-purin-6-yl)-ureido]-phenyl}-amide]: the IC50 on V600E full-length B-Raf (setting [2]) is less than 1000 nM; on V600E full-length B-Raf (setting [3]) it was 4.7 nM; in experiment [1] (bound less than 500 nM), less than 500 nM; in experiment [1] (bound less than 1 μM) it was less than 1000 nM.

Regarding `CCCS(=O)(=O)Nc1ccc(Cl)c(NC(=O)Nc2ncnc3[nH]nc(OC)c23)c1F` [Example 16, Propane-1-sulfonic acid {4-chloro-2-fluoro-3-[3-(3-methoxy-1H-pyrazolo[3,4-d]pyrimidin-4-yl)-ureido]-phenyl}-amide], the IC50 at V600E full-length B-Raf (setting [2]) is less than 1000 nM; on V600E full-length B-Raf (setting [3]), 0.6 nM; in experiment [1] (bound less than 500 nM) it was less than 500 nM; in experiment [1] (bound less than 1 μM), less than 1000 nM.

Regarding `CCCS(=O)(=O)Nc1ccc(F)c(NC(=O)Nc2ncnc3[nH]nc(OC)c23)c1OC` [Example 8, Propane-1-sulfonic acid {4-fluoro-2-methoxy-3-[3-(3-methoxy-1H-pyrazolo[3,4-d]pyrimidin-4-yl)-ureido]-phenyl}-amide], the IC50 was less than 1000 nM on V600E full-length B-Raf (setting [2]), 192 nM at V600E full-length B-Raf (setting [3]) and less than 1000 nM in experiment [1] (bound less than 1 μM).

For `CCCS(=O)(=O)Nc1ccc(F)c(NC(=O)Nc2ncnc3[nH]ncc23)c1F` [Example 11, Propane-1-sulfonic acid {2,4-difluoro-3-[3-(1H-pyrazolo[3,4-d]pyrimidin-4-yl)-ureido]-phenyl}-amide], the IC50 was 5.5 nM on V600E full-length B-Raf, less than 1000 nM at V600E full-length B-Raf (setting [2]), less than 500 nM in experiment [1] (bound less than 500 nM) and less than 1000 nM in experiment [1] (bound less than 1 μM).

In the case of `CCCS(=O)(=O)Nc1ccc(F)c(NC(=O)N(C)c2ncnc3[nH]cnc23)c1F` [Example 1, Propane-1-sulfonic acid {2,4-difluoro-3-[3-methyl-3-(9H-purin-6-yl)-ureido]-phenyl}-amide], the half-inhibitory concentration (IC50) at V600E full-length B-Raf (setting [2]) is less than 1000 nM; at V600E full-length B-Raf (setting [3]), 23.9 nM; in experiment [1] (bound less than 500 nM), less than 500 nM; in experiment [1] (bound less than 1 μM) it was less than 1000 nM.

Regarding `CCCS(=O)(=O)Nc1ccc(F)c(NC(=O)Nc2ncnc3[nH]nc(OCCCO)c23)c1F` [Example 15, Propane-1-sulfonic acid {2,4-difluoro-3-{3-[3-(3-hydroxy-propoxy)-1H-pyrazolo[3,4-d]pyrimidin-4-yl]-ureido}-phenyl)-amide], the IC50 is less than 1000 nM on V600E full-length B-Raf (setting [2]) and 428 nM on V600E full-length B-Raf (setting [3]).

As for `CCCS(=O)(=O)Nc1ccc(F)c(NC(=O)Nc2ncnc3[nH]nnc23)c1F` [Example 14, Propane-1-sulfonic acid {2,4-difluoro-3-[3-(3H-[1,2,3]triazolo[4,5-d]pyrimidin-7-yl)-ureido]-phenyl}-amide], the IC50 on V600E full-length B-Raf (setting [3]) is 1960 nM.

Regarding `CCCS(=O)(=O)Nc1ccc(F)c(NC(=O)Nc2ncnc3oc(C)c(C)c23)c1F` [Example 18, Propane-1-sulfonic acid {3-[3-(5,6-dimethyl-furo[2,3-d]pyrimidin-4-yl)-ureido]-2,4-difluoro-phenyl}-amide], the IC50 at V600E full-length B-Raf (setting [2]) was less than 1000 nM; at V600E full-length B-Raf (setting [3]), 431 nM.

For `CCCS(=O)(=O)Nc1ccc(F)c(NC(=O)Nc2ncnc3[nH]nc(OC)c23)c1Cl` [Example 2, Propane-1-sulfonic acid {2-chloro-4-fluoro-3-[3-(3-methoxy-1H-pyrazolo[3,4-d]pyrimidin-4-yl)-ureido]-phenyl}-amide], the IC50 at V600E full-length B-Raf (setting [2]) was less than 1000 nM; on V600E full-length B-Raf (setting [3]) it was 1.3 nM; in experiment [1] (bound less than 500 nM), less than 500 nM; in experiment [1] (bound less than 1 μM), less than 1000 nM.

Consider `CCCS(=O)(=O)Nc1ccc(F)c(NC(=O)Nc2ncnc3sc4c(c23)CCC4)c1F` [Example 19, Propane-1-sulfonic acid {3-[3-(6,7-dihydro-5H-cyclopenta[4,5]thieno[2,3-d]pyrimidin-4-yl)-ureido]-2,4-difluoro-phenyl}-amide], for which the IC50 at V600E full-length B-Raf (setting [2]) was less than 1000 nM; at V600E full-length B-Raf (setting [3]), 25.2 nM; in experiment [1], 176 nM; in experiment [1] (bound less than 500 nM), less than 500 nM; in experiment [1] (bound less than 1 μM), less than 1000 nM.

Turning to `CCCS(=O)(=O)Nc1ccc(F)c(NC(=O)Nc2ncnc3[nH]nc(I)c23)c1F` [Example 7, Propane-1-sulfonic acid {2,4-difluoro-3-[3-(3-iodo-1H-pyrazolo[3,4-d]pyrimidin-4-yl)-ureido]-phenyl}-amide], the IC50 on V600E full-length B-Raf (setting [2]) is less than 1000 nM; on V600E full-length B-Raf (setting [3]), 3.8 nM; in experiment [1] (bound less than 1 μM), less than 1000 nM.

As to `CCCS(=O)(=O)Nc1ccc(F)c(NC(=O)Nc2ncnc3[nH]nc(OCC)c23)c1F` [Example 9, N-(3-(3-(3-Ethoxy-1H-pyrazolo[3,4-d]pyrimidin-4-yl)ureido)-2,4-difluorophenyl)propane-1-sulfonamide], the IC50 was less than 1000 nM on V600E full-length B-Raf (setting [2]), 0.9 nM at V600E full-length B-Raf (setting [3]), less than 500 nM in experiment [1] (bound less than 500 nM) and less than 1000 nM in experiment [1] (bound less than 1 μM).

As for `CCS(=O)(=O)Nc1ccc(F)c(NC(=O)Nc2ncnc3[nH]nc(OC)c23)c1F` [Example 3, Ethanesulfonic acid {2,4-difluoro-3-[3-(3-methoxy-1H-pyrazolo[3,4-d]pyrimidin-4-yl)-ureido]-phenyl}-amide], the IC50 on V600E full-length B-Raf (setting [2]) is less than 1000 nM; at V600E full-length B-Raf (setting [3]), 3.4 nM; in experiment [1] it was 13.5 nM; in experiment [1] (bound less than 500 nM) it was less than 500 nM; in experiment [1] (bound less than 1 μM), less than 1000 nM.

For `CCCS(=O)(=O)Nc1ccc(F)c(NC(=O)N(C)c2ncnc3[nH]ccc23)c1F` [Example 6, Propane-1-sulfonic acid {2,4-difluoro-3-[3-methyl-3-(7H-pyrrolo[2,3-d]pyrimidin-4-yl)-ureido]-phenyl}-amide], the results for the IC50 on V600E full-length B-Raf (setting [2]) and on V600E full-length B-Raf (setting [3]) were less than 1000 nM and 57 nM, respectively.

`CCCS(=O)(=O)Nc1ccc(F)c(NC(=O)Nc2ncnc3[nH]c(=S)[nH]c23)c1F` [Example 23, Propane-1-sulfonic acid {2,4-difluoro-3-[3-(8-thioxo-8,9-dihydro-7H-purin-6-yl)-ureido]-phenyl}-amide]: the IC50 on V600E full-length B-Raf (setting [2]) was less than 1000 nM; at V600E full-length B-Raf (setting [3]) it was 29.2 nM.
